“Also recorded” adds a separate entry of the source.
Assays:
[1] = molecular target: T1, PDE10A1 (AB 020593) (Homo sapiens, UniProt Q9Y233); experiment: Inhibition of recombinant PDE10A (baculovirus/SF21 system); assay type: biochemical; settings: recombinant cytosolic PDE10A, 0.1 μM [3H]-cAMP, 37° C., 30 minutes, SPA; read-out: PDE10A IC50
T1 construct: made in house; host or cells: baculovirus / SF21 insect cells (gene synthesized by Entelechon GmbH)
Method in brief: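 Cytosolic PDE10A1 expressed in SF21 cells via baculovirus, incubated with 0.1 μM [3H]-cAMP in 50 mM Tris-HCl/5 mM MgCl2, pH 7.4, 30 min at 37 °C. SPA-bead scintillation read-out, with enzyme-free wells as background. IC50 from Hill plot, 2-parameter model.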

[2] = molecular target: T2, PDE2A (NM002599) (Homo sapiens, UniProt O00408); experiment: Inhibition of recombinant PDE2A (expressed in baculovirus/SF21-cells); assay type: biochemical; settings: recombinant PDE2A, 0.5 μM [3H]-cAMP, 1000 nM cGMP, 37° C., 30 minutes, SPA; read-out: PDE2A IC50
T2 construct: made in house; host or cells: baculovirus / SF21 insect cells
T2 sequence (O00408 whole entry): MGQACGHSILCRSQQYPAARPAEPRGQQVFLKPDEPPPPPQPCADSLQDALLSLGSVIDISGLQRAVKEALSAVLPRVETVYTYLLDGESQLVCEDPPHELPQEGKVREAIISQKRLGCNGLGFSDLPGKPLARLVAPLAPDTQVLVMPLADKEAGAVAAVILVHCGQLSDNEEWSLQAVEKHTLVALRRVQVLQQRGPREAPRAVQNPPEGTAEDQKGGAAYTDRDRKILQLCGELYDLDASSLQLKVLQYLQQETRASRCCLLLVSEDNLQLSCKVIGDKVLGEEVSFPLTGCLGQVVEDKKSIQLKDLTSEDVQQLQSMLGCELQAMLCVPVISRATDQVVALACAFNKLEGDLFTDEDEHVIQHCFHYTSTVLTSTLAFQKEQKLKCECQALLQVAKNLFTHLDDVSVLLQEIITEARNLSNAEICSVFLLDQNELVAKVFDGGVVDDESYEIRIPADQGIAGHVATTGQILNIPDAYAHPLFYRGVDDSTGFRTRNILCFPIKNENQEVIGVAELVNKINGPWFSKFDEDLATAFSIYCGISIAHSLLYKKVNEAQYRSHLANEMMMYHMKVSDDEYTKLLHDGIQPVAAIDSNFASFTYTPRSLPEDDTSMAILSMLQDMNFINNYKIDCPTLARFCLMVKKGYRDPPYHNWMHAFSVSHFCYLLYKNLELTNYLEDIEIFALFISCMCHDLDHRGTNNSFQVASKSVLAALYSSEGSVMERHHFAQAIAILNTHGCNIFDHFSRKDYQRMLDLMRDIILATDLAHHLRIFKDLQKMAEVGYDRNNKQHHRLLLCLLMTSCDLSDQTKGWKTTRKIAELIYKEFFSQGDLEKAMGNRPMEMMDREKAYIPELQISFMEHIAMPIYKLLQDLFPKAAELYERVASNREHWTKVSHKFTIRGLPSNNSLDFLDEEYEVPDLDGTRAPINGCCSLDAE
Method in brief: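 Human PDE2A membrane fraction from baculovirus-infected SF21 cells; 0.5 μM [3H]-cAMP with 1000 nM cGMP as activator in 50 mM Tris-HCl/5 mM MgCl2 pH 7.4, 30 min at 37° C, SPA read-out. Non-specific activity measured without cGMP; IC50 by 2-parameter Hill fit.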

[3] = system: mice; experiment: Forced swim test; assay type: in vivo, mouse; settings: immobility recorded during last 4 min of 6 min, FIG. 1
Protocol: The forced swim test is an established animal model of depression (Yacoubi et al., 2001). Mice which are forced to swim in a restricted area from which they cannot escape will rapidly cease attempts to escape and adopt a characteristic immobile posture which can be readily identified and timed. Immobility is taken as depression-related behaviour in the animal (Porsolt, 1979). For the test a glass cylinder (height: 20 cm, internal diameter: 15 cm) containing 11 cm water maintained at 23° C. is used. On the day of experiment the mice are forced to swim in the water for 6 min and the immobility time is recorded during the last 4 min of the 6-min-period. Afterwards animals are removed from the water, dried with a paper towel and put under infrared light. […] Results are analyzed by t-test (two groups) or one way analysis of variance (ANOVA) when several groups are compared. Tukey test is used for individual comparison. P<0.05 is regarded as significant.

[4] = system: mice; experiment: Light and dark box test; assay type: in vivo, mouse; settings: 5 min exploration, FIG. 2
Description: The light and dark box is an established animal model of anxiety (Crawley, 1985). The light and dark box consists of two chambers (each 30×30 cm) that are connected by an opening. There is an aversive chamber with white walls that is brightly lit (600 lux) and a dark chamber with black walls that is only lit by an infrared lamp ([…]). Untreated mice predominately stay in the dark chamber whereas mice treated with an anxiolytic compound go more often into the light chamber resulting in an increased number of transitions between the boxes and increased time in the light box. In addition the distance traveled in the dark chamber is regarded as an activity-related parameter. For the experiment, mice are placed in the light box after the pre-treatment time. Recording time starts when the mouse enters the dark box for the first time. Then the animal has 5 min to explore the two chambers. The behavior of the mice is recorded by video and analyzed by VideoMot 2 (TSE systems, Germany). […] Results are analyzed by t-test (two groups) or one way analysis of variance (ANOVA) when several groups are compared. Tukey test is used for individual comparison. P<0.05 is regarded as significant.

[5] = system: Female Wistar-rats; experiment: Novel object recognition test; assay type: in vivo, rat; settings: MK-801 0.025 mg/kg intraperitoneally, compound given orally 30 min prior to the test session, FIG. 3
Protocol: The novel object recognition is an animal model of learning and memory (Rutten et al., 2006a, 2006b).
The novel object recognition is performed in glass aquaria (40×60×40 cm) that have 3 black walls and one transparent wall. The floor consists of black, antislip PVC. Objects of different material (iron, plastic, coated hardwood) and forms and similar size are used for the experiment. The objects are positioned 10 cm from the wall and 35-40 cm from each other. Female Wistar-rats are used for this experiment.
One day before the experiment rats have 15 min to habituate to the arena and two objects.
On the first day of the experiment rats are placed into the arena and have five min to explore two equal objects. To disturb the learning process, MK-801 at 0.025 mg/kg is administered intraperitoneally on the first day of the experiment 30 min before the test starts.
On the second day of the experiment (24 h later) rats are again placed into the arena and have 5 min to explore one of the old objects and a novel object. […]
The following parameters are recorded: • 1. the time the rats spent with each object on the first day • 2. the time the rats spent with each object on the second day • 3. percent of time rats spent with the novel object on the second day […]
Results are analyzed by t-test (two groups) or one way analysis of variance (ANOVA) when several groups are compared. […]

T1 sequence (Q9Y233 other isoform, or with tags, fused parts or gaps): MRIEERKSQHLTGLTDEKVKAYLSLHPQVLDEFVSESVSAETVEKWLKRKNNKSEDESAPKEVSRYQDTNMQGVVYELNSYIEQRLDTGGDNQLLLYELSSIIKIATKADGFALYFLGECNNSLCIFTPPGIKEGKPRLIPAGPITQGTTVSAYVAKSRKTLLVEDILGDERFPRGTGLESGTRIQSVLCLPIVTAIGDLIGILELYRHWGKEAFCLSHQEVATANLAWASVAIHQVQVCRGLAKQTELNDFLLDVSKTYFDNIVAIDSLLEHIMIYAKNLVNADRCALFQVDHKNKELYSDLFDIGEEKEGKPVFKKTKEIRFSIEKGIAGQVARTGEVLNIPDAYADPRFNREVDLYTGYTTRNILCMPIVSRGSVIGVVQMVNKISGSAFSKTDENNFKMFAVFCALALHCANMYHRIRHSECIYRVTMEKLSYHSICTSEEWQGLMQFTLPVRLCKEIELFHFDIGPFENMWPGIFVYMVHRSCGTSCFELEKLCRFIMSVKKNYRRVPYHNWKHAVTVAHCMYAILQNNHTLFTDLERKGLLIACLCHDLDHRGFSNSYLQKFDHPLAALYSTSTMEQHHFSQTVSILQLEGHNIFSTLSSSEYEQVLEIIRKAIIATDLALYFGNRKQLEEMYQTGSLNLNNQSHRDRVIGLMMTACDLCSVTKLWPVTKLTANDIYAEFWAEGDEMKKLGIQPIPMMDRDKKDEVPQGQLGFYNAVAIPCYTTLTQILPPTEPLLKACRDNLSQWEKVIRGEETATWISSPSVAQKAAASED

| SMILES | IC50 [1] | melting point | IC50 [2] | effect in the forced swim test (antidepressant; immobility time) [3] | effect in the light and dark box test (anxiolytic) [4] | effect in the novel object recognition test (cognition enhancing) [5] |
| --- | --- | --- | --- | --- | --- | --- |
| Cc1cn(-c2ccc3nnc4c(C)nc(-c5cc(Cl)ccc5Cl)n4c3n2)c(-c2cc(Cl)ccc2Cl)n1 [Example 119, 1-(2,5-dichloro-phenyl)-8-[2-(2,5-dichloro-phenyl)-4-methyl-imidazol-1-yl]-3-methyl-imidazo[5,1-c]pyrido[2,3-e][1,2,4]triazine] | 240 nM | 130 °C | 41 nM | – | – | – |
| COc1ccc2nnc3c(C)nc(-c4ccccn4)n3c2n1 [Example 10, 8-methoxy-3-methyl-1-(2-pyridyl)-imidazo[5,1-c]-pyrido[2,3-e][1,2,4]triazine] | 3810 nM | 216 to 220 °C | 2200 nM | – | – | – |
| COc1ccc2nnc3cnc(-c4ccccc4Cl)n3c2n1 [Example 8, 1-(2-chlorophenyl)-8-methoxy-imidazo[5,1-c]pyrido[2,3-e][1,2,4]triazine] | 454 nM | 190 to 193 °C | 96.5 nM | – | – | – |
| COc1ccc2nnc3c(C4CC4)nc(-c4cccc(Cl)c4)n3c2n1 [Example 121, 1-(3-Chloro-phenyl)-3-cyclopropyl-8-methoxy-imidazo[5,1-c]pyrido[2,3-e][1,2,4]triazine] | > 500 nM | 155 °C | 136 nM | – | – | – |
| COc1ccc2nnc3c(C)nc(CC(C)C)n3c2n1 [Example 13, 8-methoxy-3-methyl-1-(iso-butyl)-imidazo[5,1-c]-pyrido[2,3-e][1,2,4]triazine] | 12.9 nM | 143.5 to 145 °C | 30.3 nM | – | – | – |
| CCc1ncc2nnc3ccc(OC)nc3n12 [Example 3, 1-ethyl-8-methoxy-imidazo[5,1-c]pyrido[2,3-e][1,2,4]triazine] | 4460 nM | 167 to 168 °C | > 1000 nM | – | – | – |
| COc1ccc2nnc3c(C)nc(C4CCCCC4)n3c2n1 [Example 11, 8-methoxy-3-methyl-1-(cyclohexyl)-imidazo[5,1-c]-pyrido[2,3-e][1,2,4]triazine] | 41.4 nM | 174 to 177 °C | 56.3 nM | – | – | – |

Further compounds by falling IC50 [1], results first:

| IC50 [1] | melting point | IC50 [2] | SMILES | effect in the forced swim test (antidepressant; immobility time) [3] | effect in the light and dark box test (anxiolytic) [4] | effect in the novel object recognition test (cognition enhancing) [5] |
| --- | --- | --- | --- | --- | --- | --- |
| 8100 nM | 162 to 164 °C | 5190 nM | COc1ccc2nnc3c(C4CC4)nc(-c4ccccn4)n3c2n1 [Example 122, 3-Cyclopropyl-8-methoxy-1-pyridin-2-yl-imidazo[5,1-c]pyrido[2,3-e][1,2,4]triazine] | – | – | – |
| 297 nM | 202 to 203 °C | 399 nM | CCc1nc(C)c2nnc3ccc(OC)nc3n12 [Example 2, 1-ethyl-8-methoxy-3-methyl-imidazo[5,1-c]pyrido[2,3-e][1,2,4]triazine] | – | – | – |
| 102 nM | 163 to 165 °C | 88.8 nM | CCCc1nc(C)c2nnc3ccc(OC)nc3n12 [Example 1, 8-methoxy-3-methyl-1-propyl-imidazo[5,1-c]-pyrido[2,3-e][1,2,4]triazine] | – | – | – |
| 20.9 nM | – | 3.83 nM | COc1ccc2nnc3c(C)nc(-c4ccccc4Cl)n3c2n1 [Example 6, 1-(2-chlorophenyl)-8-methoxy-3-methyl-imidazo[5,1-c]-pyrido[2,3-e][1,2,4]triazine] | antidepressant effect; also recorded: significant effect | anxiolytic effect; also recorded: significant effect | significant effect |

From patent US20100120762A1, “Triazine derivatives as inhibitors of phosphodiesterases” (WYETH, priority 2008, published 2010)
